Source: patent US6451801B1, “Compounds and methods for treatment of asthma, allergy and inflammatory disorders” (UCB, S.A., priority 1999, dated 2002)
Read-outs that look alike come from different tables or passages of the source.

Tests used:
[1] = target: T1, human cloned H1 receptor (Homo sapiens, UniProt P35367); assay: CHO-K1 H1R binding assay; conditions: 3H-pyrilamine 2 nM, CHO-K1 membranes, 3 hours at 37° C.; read-out: CHOH1 K1
T1 construct: expressed in transfected cells; host or cells: CHO-K1
Description: CHO-K1 cells expressing the human cloned H1 receptor are grown to confluence in tissue culture dishes. Cells are harvested using D-PBS buffer (JRH Biosciences), kept at 4° C., centrifuging to pellet cells (4° C., 500 g, 10 min). The final cell pellet is homogenized and resuspended using Tris/sucrose buffer (20 mM Tris, 250 mM sucrose, pH 7.4 at 4° C.). Aliquots of the membrane preparation are stored at −70° C.
On the day of assay, the membrane preparation is thawed and centrifuged (TLA100.3 rotor, 4° C., 15 min, 23,000 rpm). The pellet is resuspended in Tris/sucrose buffer initially and then diluted further as necessary using assay buffer A (50 mM Na/KPO4, 2 mM MgCl2, 0.5% (w/v) BSA, pH 7.5).
For the binding assay, the membrane preparation, test compound and ^3H-pyrilamine (2 nM final) in buffer A with 1% (v/v) DMSO final are incubated in a 96-well polypropylene plate for 3 hours at 37° C. Non-specific binding is determined in the presence of 10 μM pyrilamine. A 96-well harvester (Packard) is used to harvest the 96-well plate onto a GF/B filter plate pre-treated with 0.1% (v/v) PEI. The plate is counted in a Packard Topcounter after adding Microscint 20 (Packard) scintillation fluid. The Ki for each compound at the histamine H1 receptor is then calculated from these counts.

[2] = target: T2, human 5-lipoxygenase enzyme (Homo sapiens, UniProt P09917); assay: Inhibition of LTB4 production in human whole blood; type: cell-based
T2 construct: endogenous in cells; host or cells: human whole blood (leukocytes) stimulated with A23187
T2 sequence (P09917 1-674): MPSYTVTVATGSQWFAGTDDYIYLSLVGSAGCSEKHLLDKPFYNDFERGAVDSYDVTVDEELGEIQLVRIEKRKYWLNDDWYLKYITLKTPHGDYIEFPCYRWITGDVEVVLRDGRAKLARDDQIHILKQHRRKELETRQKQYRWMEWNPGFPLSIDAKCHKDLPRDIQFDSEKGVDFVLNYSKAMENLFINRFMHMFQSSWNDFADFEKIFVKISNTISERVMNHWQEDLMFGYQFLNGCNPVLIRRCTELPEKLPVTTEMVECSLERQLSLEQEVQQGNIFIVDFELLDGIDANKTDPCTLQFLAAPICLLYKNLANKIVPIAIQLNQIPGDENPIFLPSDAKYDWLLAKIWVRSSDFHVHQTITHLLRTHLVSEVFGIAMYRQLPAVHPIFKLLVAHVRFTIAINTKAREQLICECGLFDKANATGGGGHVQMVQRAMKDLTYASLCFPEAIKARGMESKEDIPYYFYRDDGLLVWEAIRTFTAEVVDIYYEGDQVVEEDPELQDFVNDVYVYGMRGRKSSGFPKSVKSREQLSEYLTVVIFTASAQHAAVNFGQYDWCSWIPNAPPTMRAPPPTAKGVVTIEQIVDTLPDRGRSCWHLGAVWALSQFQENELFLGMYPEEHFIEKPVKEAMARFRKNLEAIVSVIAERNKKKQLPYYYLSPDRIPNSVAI
Description: This assay examines the ability of a compound to inhibit leukotriene B4 production from human blood stimulated with calcium ionophore. As this production of leukotriene B4 is mediated via the activation of the 5-lipoxygenase enzyme, this assay is predictive of a compound's ability to inhibit the human 5-lipoxygenase enzyme.
The procedure for the assay is as follows. Blood is drawn from normal human volunteers into tubes containing heparin. 1 ml of the heparinized blood is pipetted into a 1.5 ml polypropylene tube. To this sample is added either different concentrations of the test compound (5 μl) dissolved in DMSO or 5 μl of DMSO as a vehicle control. These samples are incubated in a water bath, at 37° C. for 15 min. 5 μl of the calcium ionophore A23187 (at a final concentration of 50 μM) is then added to each sample, which is vortexed and placed back in the water bath for 30 min. The samples are then centrifuged at 2500 rpm for 10 min. at 4° C. 50 μl of the supernatant is transferred into pre-cooled Eppendorf tubes containing 950 μl of enzyme immunoassay (EIA) buffer. A commercially available EIA kit (Cayman Chemical Co., Ann Arbor, Mich., USA) is used to subsequently measure the LTB4 production in the samples. The LTB4 levels produced in the vehicle control sample is then compared to those in which the test compound has been added. From this a percent inhibition of LTB4 production by each concentration of test compound is calculated and the IC50 for inhibition of LTB4 production for each test compound is determined.

[3] = tested on: histamine-induced bronchoconstriction; assay: Antihistaminergic activity in vivo (histamine-induced bronchoconstriction); conditions: guinea pig, oral
Description: Male, Hartley guinea pigs are obtained from Charles River Labs at a body weight of 350 -400 grams. Inhibition of histamine activity is measured by the method of Konzett and Rössler (Naonyn-Schmiedebergs Arch. Exp. Path. Pharmakol. 195, 71-74 (1940). Anaethetized guinea pigs are subjected to artificial ventilation. The endotracheal pressure is recorded. Bronchoconstriction is induced by successive intravenous injections of histamine. The test compounds are administered orally in a 1% methocellulose suspension at set timepoints prior to the administration of histamine.
The results (Table 2) show the percent inhibition of histamine-induced bronchoconstriction by selected compounds at multiple time points post oral dosing. 50% inhibition or greater is considered significant.

[4] = tested on: 5-lipoxygenase; assay: 5-Lipoxygenase inhibitory activity in vivo; conditions: guinea pig, oral, 2 mg/kg
Description: Male, Hartley guinea pigs are obtained from Charles River Labs at a body weight of 350-400 grams. Compounds are prepared at a volume of [1-2 mg/ml] in 1% methocellulose for oral dosing. Animals are separated into groups of five (5). Each assay includes a control group dosed with vehicle. Each group of animals is dosed with either vehicle or compound by oral gavage. Animals are allowed to rest for one, three, or six hours after dosing. Control animals are allowed to rest for three hours. At the appropriate times, the animals are anesthetized with Urethane at 1.5 g/kg, ip. Blood is drawn into a heparinized syringe via cardiac puncture. Blood (0.5 ml) is aliquoted into separately-labeled 1.5 ml eppendorf tubes. Each sample is loaded with 5 μl of [15 mM] Arachidonic Acid, and placed in a 37° C. water bath for five minutes. After five minutes, the blood is stimulated with 5 μl of [5 mM] A23187 (Calcium Ionophore) and retained in the water bath for an additional 30 minutes. After the thirty minutes, the blood samples are removed from the water bath and centrifuged at 14,000 rpm for 2 minutes. Plasma is diluted to EIA buffer and an EIA is performed following manufacturer instructions (Cayman Chemical Co., Ann Arbor, Mich., USA). The results (Table 3) show the percent inhibition of 5-lipoxygenase by selected compounds at multiple time points post oral dosing. 50% inhibition or greater is considered significant.

[5] = target: T3, 15-lipoxygenase (Oryctolagus cuniculus, UniProt P12530); assay: Inhibition of 15-lipoxygenase (15-HETE production); type: biochemical; conditions: 15-lipoxygenase from rabbit peritoneal polymorphonuclear leukocytes, 5 min at 37° C.
T3 construct: from tissue; host or cells: rabbit peritoneal polymorphonuclear leukocytes
T3 sequence (P12530 1-663): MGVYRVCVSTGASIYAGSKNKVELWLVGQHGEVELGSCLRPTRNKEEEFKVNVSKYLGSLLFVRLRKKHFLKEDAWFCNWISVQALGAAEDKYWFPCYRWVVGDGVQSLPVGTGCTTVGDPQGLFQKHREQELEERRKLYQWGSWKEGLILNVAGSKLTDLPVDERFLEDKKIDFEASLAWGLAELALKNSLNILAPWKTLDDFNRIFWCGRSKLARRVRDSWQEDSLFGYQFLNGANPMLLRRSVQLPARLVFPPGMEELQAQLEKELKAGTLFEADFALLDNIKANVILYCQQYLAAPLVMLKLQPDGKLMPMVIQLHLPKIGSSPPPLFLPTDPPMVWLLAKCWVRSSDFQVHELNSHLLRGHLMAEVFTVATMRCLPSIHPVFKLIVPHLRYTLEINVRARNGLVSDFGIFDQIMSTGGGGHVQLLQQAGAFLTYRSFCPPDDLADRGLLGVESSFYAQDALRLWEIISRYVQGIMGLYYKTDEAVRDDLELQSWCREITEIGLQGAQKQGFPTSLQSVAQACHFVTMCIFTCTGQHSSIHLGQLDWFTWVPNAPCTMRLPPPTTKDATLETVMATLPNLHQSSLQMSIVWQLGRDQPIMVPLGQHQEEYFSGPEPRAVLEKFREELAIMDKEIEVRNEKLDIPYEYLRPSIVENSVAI
Excerpt: This assay examines the ability of a compound to inhibit production of 15-hydroxy-5, 8, 11, 13-eicosatetraenoic acid (15-HETE) via the action of 15-lipoxygenase on arachidonic acid. 15-lipoxygenase was purified from rabbit peritoneal polymorphonuclear leukocytes. The enzyme is responsible for the conversion of arachidonic acid (via oxygenation at carbon 15 of arachidonic acid) to 15-hydroperoxy-5, 8, 11, 13-eicosatetraenoic acid (15-HPETE), which then reduced to 15-hydroxy-5, 8, 11, 13-eicosatetraenoic acid (15-HETE).
The procedure for the assay is as follows. Arachidonic acid is co-incubated with […] for 5 min at 37° C. in the presence or absence of different concentrations of test compound (10^−8 to 10^−5 M). Production of 15-HETE in each sample is then measured by radioimmunoassay. The 15-HETE levels produced in the vehicle control sample are then compared to those in which the test compound has been added.

[6] = human whole blood, calcium ionophore A23187 50 μM, LTB4 by EIA, read-out: HWB IC50
[7] = Cavia porcellus, 2 mg/kg, 3 hrs
[8] = Cavia porcellus, 2 mg/kg, 6 hrs

T1 sequence (P35367 whole entry): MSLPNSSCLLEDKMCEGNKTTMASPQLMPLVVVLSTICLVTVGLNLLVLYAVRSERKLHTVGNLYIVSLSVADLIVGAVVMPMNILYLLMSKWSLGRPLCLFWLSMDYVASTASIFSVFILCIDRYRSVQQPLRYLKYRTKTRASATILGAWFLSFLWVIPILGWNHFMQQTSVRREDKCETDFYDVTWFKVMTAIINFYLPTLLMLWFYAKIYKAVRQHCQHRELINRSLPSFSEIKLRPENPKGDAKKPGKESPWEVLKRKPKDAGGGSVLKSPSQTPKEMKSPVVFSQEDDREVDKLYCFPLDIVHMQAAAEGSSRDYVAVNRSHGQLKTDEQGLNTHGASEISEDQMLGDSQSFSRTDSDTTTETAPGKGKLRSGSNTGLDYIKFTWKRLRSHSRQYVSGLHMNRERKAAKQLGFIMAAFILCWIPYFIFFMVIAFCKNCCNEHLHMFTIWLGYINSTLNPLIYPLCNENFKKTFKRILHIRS

Work on NC(=O)N(O)Cc1ccc(OCCN2CCN([C@H](c3ccccc3)c3ccc(Cl)cc3)CC2)cc1 [Compound 1, N-{[4-(2-{4-[(1R) (4-chlorophenyl)phenylmethyl]piperazinyl}ethoxy)phenyl]methyl} amino-N-hydroxyamide] yielded a Ki [1] of 24 nM, an IC50 [2, 6] of 1520 nM and an inhibition in vivo at 5 mg/kg ([3]; Cavia porcellus, 5 mg/kg, 3 hrs) of 56%. For the same compound, the “% inhibition of 5-lipoxygenase” value ([4]; 1 hour) was 62% and the IC50 [5] was 1300 nM.

Compound NC(=O)c1cc(C#CCCN(O)C(N)=O)ccc1OCCN1CCN([C@H](c2ccccc2)c2ccc(Cl)cc2)CC1 [Compound 35, 2-(2-{4-[(1R) (4-chlorophenyl)phenyl-methyl]piperazinyl}ethoxy)-5-[4-(amino-hydroxycarbonylamino)but-1-ynyl]benzamide] has a Ki [1] of 135 nM, an IC50 [2, 6] of 85 nM and an inhibition in vivo at 2 mg/kg [3, 7] of 72%. The inhibition in vivo at 2 mg/kg [3, 8] was 88%, the “% inhibition of 5-lipoxygenase” value ([4]; 1 hour) was 87% and the “% inhibition of 5-lipoxygenase” value ([4]; 3 hours) was 97%. The IC50 [5] was 46 nM.

Work on NC(=O)N(O)CCCCc1ccc(OCCN2CCN([C@H](c3ccccc3)c3ccc(Cl)cc3)CC2)cc1 [Compound 17, N-{4-[4-(2-{4-[(1R) (4-chlorophenyl)phenyl-methyl]piperazinyl}ethoxy)phenyl]butyl} amino-N-hydroxyamide] yielded a Ki [1] of 15 nM, an IC50 [2, 6] of 254 nM and an inhibition in vivo at 2 mg/kg [3, 7] of 66%. For the same compound, the inhibition in vivo at 2 mg/kg [3, 8] was 73%, the “% inhibition of 5-lipoxygenase” value ([4]; 3 hours) was 70% and the “% inhibition of 5-lipoxygenase” value ([4]; 6 hours) was 94%.

NC(=O)N(O)CCC#Cc1ccc(CN2CCN(C(c3ccc(F)cc3)c3ccc(F)cc3)CC2)o1 [Compound 34, amino-N-{4-[5-({4-[bis (4-fluorophenyl)methyl]piperazinyl}methyl) (2-furyl)]but-3-ynyl}-N-hydroxyamide] was tested, and the Ki [1] was 550 nM, the IC50 [2] was 142 nM and the inhibition in vivo at 2 mg/kg [3, 7] was 81%. The inhibition in vivo at 2 mg/kg [3, 8] was 89% and the “% inhibition of 5-lipoxygenase” value ([4]; 3 hours) was 38%.

For NC(=O)N(O)CCC#Cc1ccc(OCCN2CCC(=C3c4ccc(Cl)cc4CCc4cccnc43)CC2)cc1 [Compound 32], the IC50 [2, 6] was 263 nM, the inhibition in vivo at 2 mg/kg [3, 7] was 65% and the “% inhibition of 5-lipoxygenase” value ([4]; 1 hour) was 88%. It also gave an IC50 [5] of 170 nM.

For NC(=O)N(O)CCC#Cc1ccc(OCCCCN2CCN(C(c3ccc(F)cc3)c3ccc(F)cc3)CC2)cc1 [Compound 80, amino-N-{4-[4-(4-{4-[bis(4-fluorophenyl)methyl]piperazinyl}butoxy)phenyl]but-3-ynyl}-N-hydroxyamide], the IC50 [2, 6] was 78 nM, the inhibition in vivo at 2 mg/kg [3, 7] was 98% and the “% inhibition of 5-lipoxygenase” value ([4]; 3 hours) was 73%. The “% inhibition of 5-lipoxygenase” value ([4]; 6 hours) was 88% and the IC50 [5] was 110 nM.

With NC(=O)N(O)CCC#Cc1ccc(CN2CCN([C@H](c3ccccc3)c3ccc(Cl)cc3)CC2)o1 [Compound 27, N-{4-[5-({4-[(1R) (4-chlorophenyl)phenylmethyl]piperazinyl}methyl)(2-furyl)]but-3-ynyl}amino-N-hydroxyamide] the Ki [1] was 150 nM, the IC50 [2, 6] was 650 nM and the inhibition in vivo at 2 mg/kg [3, 7] was 86%. For the same compound, the inhibition in vivo at 2 mg/kg [3, 8] was 91%, the “% inhibition of histamine-induced bronchoconstriction” value ([3]; 2 mg/kg, 6 hrs) was 91% and the “% inhibition of 5-lipoxygenase” value ([4]; 1 hour) was 88%.

NC(=O)N(O)CCC#Cc1ccc(OCCCN2CCN([C@H](c3ccccc3)c3ccc(Cl)cc3)CC2)cc1 [Compound 52, N-{4-[4-(3-{4-[(1R)(4-chlorophenyl)phenyl-methyl]piperazinyt}propoxy)phenyl]but-3-ynyl}amino-N-hydroxyamide] was tested, and the IC50 [2, 6] was 105 nM, the inhibition in vivo at 2 mg/kg [3, 7] was 69% and the “% inhibition of 5-lipoxygenase” value ([4]; 3 hours) was 61%. The IC50 [5] was 61 nM.

With NC(=O)N(O)CCC#Cc1ccc(OCCN2CCN(C(c3ccc(F)cc3)c3ccc(F)cc3)CC2)cc1[N+](=O)[O-] [Compound 87, N-{4-[4-(2-{4-[bis(4-fluorophenyl)methyl]-1-piperazinyl}ethoxy)-2-nitrophenyl]-3-butynyl)-N-hydroxyurea] the Ki [1] was 58 nM, the IC50 [2, 6] was 251 nM and the inhibition in vivo at 2 mg/kg [3, 7] was 66%. The inhibition in vivo at 2 mg/kg [3, 8] was 73%, the “% inhibition of 5-lipoxygenase” value ([4]; 1 hour) was 70% and the “% inhibition of 5-lipoxygenase” value ([4]; 6 hours) was 94%.
